Patent publication US20260132123A1, “ABAD INHIBITOR COMPOUNDS” (UNIVERSITY COURT OF THE UNIVERSITY OF ST ANDREWS, priority 2021, published 2026)

Legend:
[1] = tested on: SH-SY5Y (neuroblastoma cells); conditions: cited from earlier work
[2] = Mouse hepatocyte stability; format: in vitro ADME; parameters: k: unit not given here
From the text: Table 5: Initial mouse hepatocyte stability and plasma protein binding experiments were undertaken on some of the best exemplars from the representative series with AG18051 a previously published 17β-HSD10 inhibitor (C. R. Kissinger et al., J. Mol. Biol., 342 (2004), p. 943; Lim, Y.-A., Grimm, A., Giese, M. PLoS ONE (2011), 6, e28887.) Ref: shown for comparison. Where k=absorption rate constant Cl=clearance, T1/2=half-life, Heps=hepatocyte metabolism, PPB=plasma protein binding.

Heps Category ([2]; hepatocyte metabolism category, mouse): High
Cl ([2]; mouse hepatocytes, clearance): 50.5 ml/minute/g liver
T1/2 ([2]; mouse hepatocytes, half-life): 6.58 min
k ([2]; mouse hepatocytes, k=absorption rate constant (so in the source)): 0.11
SMILES: O=C(C(c1ccccc1)n1cnc2[nH]ncc2c1=S)N1CCCCCC1 (centres unmarked) [AG18051, reference compound]
protection from Aβ mediated cytotoxicity [1]: protect cultured SH-SY5Y cells from Aβ mediated cytotoxicity
